Molecular target: T1, Gamma secretase (Homo sapiens, UniProt P49768)
T1 construct: endogenous in cells; host or cells: 293 cells (T-REx, clone pTRE.15), salt-washed membrane preparation; only the substrate SPC99-Lon is transfected
Assay: Gamma secretase activity assay (membranes of C99-expressing 293 cells, Aβ 40/Aβ 42 ECL immunoassay)
Format: biochemical
Conditions: membranes incubated at 37 C for 1 h; Aβ 40 and Aβ 42 measured by ECL immunoassay; read-out: IC50 (concentration of compound producing 50% inhibition of enzyme activity)
Method: Gamma secretase activity was determined as described by Zhang et a. (Biochemistry, 40 (16), 5049-5055, 2001). Activity is expressed either as a percent inhibition or as the concentration of compound producing 50% inhibition of enzyme activity.
Reagents. Antibodies W02, G2-10, and G2-11 were obtained from Dr. Konrad Beyreuther (University of Heidelberg, Heidelberg, Germany). W02 recognizes residues 5-8 of A peptide, while G2-10 and G2-11 recognize the specific C-terminal structure of A 40 and A 42, respectively. Biotin-4G8 was purchased from Senetec (St. Louis, Mo.). All tissue culture reagents used in this work were from Life Technologies, Inc., unless otherwise specified. Pepstatin A was purchased from Roche Molecular Biochemicals; DFK167 was from Enzyme Systems Products (Livermore, Calif.).
cDNA Constructs, Tissue Culture, and Cell Line Construction. The construct SPC99-Lon, which contains the first 18 residues and the C-terminal 99 amino acids of APP carrying the London mutation, has been described (Zhang, L., Song, L., and Parker, E. (1999) J. Biol. Chem. 274, 8966-8972). Upon insertion into the membrane, the 17 amino acid signal peptide is processed, leaving an additional leucine at the N-terminus of A. SPC99-Ion was cloned into the pcDNA4/TO vector (Invitrogen) and transfected into 293 cells stably transfected with pcDNA6/TR, which is provided in the T-REx system (Invitrogen). The transfected cells were selected in Dulbecco's modified Eagle's media (DMEM) supplemented with 10% fetal bovine serum, 100 units/mL penicillin, 100 µg/mL streptomycin, 250 µg/mL zeocin, and 5 µg/mL blasticidin (Invitrogen). Colonies were screened for A production by inducing C99 expression with […] tetracycline for 16-20 h and analyzing conditioned media with a sandwich immunoassay (see below). One of the clones, designated as pTRE.15, was used in these studies.
Membrane Preparation. C99 expression in cells was induced with […] tetracycline for 20 h. The cells were pretreated with […] 12-myristate 13-acetate (PMA) and […] brefeldin A (BFA) for 5-6 h at 37 C before harvesting. The cells were washed 3 times with cold phosphate-buffered saline (PBS) and harvested in buffer A containing 20 mM Hepes (pH 7.5), 250 mM sucrose, 50 mM KCl, 2 mM EDTA, 2 mM EGTA, and Complete protease inhibitor tablets (Roche Molecular Biochemicals). The cell pellets were flash-frozen in liquid nitrogen and stored at −70 C. before use.
To make membranes, the cells were resuspended in buffer A and lysed in a nitrogen bomb at 600 psi. The cell lysate was centrifuged at 1500 g for 10 min to remove nuclei and large cell debris. The supernatant was centrifuged at 100000 g for 1 h. The membrane pellet was resuspended in buffer A plus 0.5 M NaCl, and the membranes were collected by centrifugation at 200000 g for 1 h. The salt-washed membrane pellet was washed again in buffer A and centrifuged at 100000 g for 1 h. The final membrane pellet was resuspended in a small volume of buffer A using a Teflon-glass homogenizer. The protein concentration was determined, and membrane aliquots were flash-frozen in liquid nitrogen and stored at −70 C.
-Secretase Reaction and A Analysis. To measure -secretase activity, membranes were incubated at 37 C for 1 h in 50 L of buffer containing 20 mM Hepes (pH 7.0) and 2 mM EDTA. At the end of the incubation, Aβ 40 and Aβ 42 were measured using an electrochemiluminescence (ECL)-based immunoassay. Aβ 40 was identified with antibody pairs TAG-G2-10 and biotin-W02, while A 42 was identified with TAG-G2-11 and biotin-4G8. The ECL signal was measured using an ECL-M8 instrument (IGEN International, Inc.) according to the manufacturer's instructions. The data presented were the means of the duplicate or triplicate measurements in each experiment. The characteristics of -secretase activity described were confirmed using more than five independent membrane preparations.

SMILES | IC50 [nM]
COC(=O)c1ccc(CN(C2CCCN(C(=O)OC(C)(C)C)C2)S(=O)(=O)c2ccc(C(F)(F)F)cc2)cc1 (centres unmarked) [Example 14] | 28 to 345
COC(=O)c1ccc(CN(C2CCCN(C(=O)OC(C)(C)C)C2)S(=O)(=O)c2ccc(OC(F)(F)F)cc2)cc1 (centres unmarked) [Example 16] | 28 to 345
COC(=O)c1ccc(CN(C2CCCN(C(=O)OC(C)(C)C)C2)S(=O)(=O)c2ccc([N+](=O)[O-])cc2)cc1 (centres unmarked) [Example 17] | 28 to 345
COC(=O)c1ccc(CN(C2CCCN(C(=O)OC(C)(C)C)C2)S(=O)(=O)c2ccc(C#N)cc2)cc1 (centres unmarked) [Example 18] | 28 to 345
COC(=O)c1ccc(CN(C2CCCN(C(=O)OC(C)(C)C)C2)S(=O)(=O)c2ccc(-c3ccccc3)cc2)cc1 (centres unmarked) [Example 20] | 28 to 345
COC(=O)c1ccc(CN(C2CCCN(C(=O)Cc3cccnc3)C2)S(=O)(=O)c2ccc(Cl)cc2)cc1 (centres unmarked) [Example 56] | 28 to 345
COC(=O)c1ccc(CN(C2CCCN(C(=O)Cc3ccccc3)C2)S(=O)(=O)c2ccc(Cl)cc2)cc1 (centres unmarked) [Example 62] | 28 to 345
COC(=O)c1ccc(CN(C2CCCN(C(=O)C(C)C)C2)S(=O)(=O)c2ccc(OC)cc2)cc1 (centres unmarked) [Example 68] | 28 to 345
COC(=O)c1ccc(CN(C2CCCN(C(=O)Cc3cc(F)cc(F)c3)C2)S(=O)(=O)c2ccc(C(F)(F)F)cc2)cc1 (centres unmarked) [Example 79] | 28 to 345
CC1COCC(C)N1C(=O)N1CCCC(N(c2cc(F)ccc2F)S(=O)(=O)c2ccc(Cl)cc2)C1 (centres unmarked) [Example 161] | 28 to 345
CC1CCCCN1C(=O)N1CCCC(N(c2cc(F)ccc2F)S(=O)(=O)c2ccc(Cl)cc2)C1 (centres unmarked) [Example 162] | 28 to 345
CN1CCN(C(=O)N2CCCC(N(c3cc(F)ccc3F)S(=O)(=O)c3ccc(Cl)cc3)C2)CC1 (centres unmarked) [Example 180] | 28 to 345
O=C(N1CCN(CCOCCO)CC1)N1CCCC(N(c2cc(F)ccc2F)S(=O)(=O)c2ccc(Cl)cc2)C1 (centres unmarked) [Example 181] | 28 to 345
O=C(N1CCN(CCO)CC1)N1CCCC(N(c2cc(F)ccc2F)S(=O)(=O)c2ccc(Cl)cc2)C1 (centres unmarked) [Example 182] | 28 to 345
O=C(N1CCCC(N(c2cc(F)ccc2F)S(=O)(=O)c2ccc(Cl)cc2)C1)N1CCCCC1CO (centres unmarked) [Example 192] | 28 to 345
CN(C)CC1CCCCN1C(=O)N1CCC[C@H](N(c2cc(F)ccc2F)S(=O)(=O)c2ccc(Cl)cc2)C1 (some centres unmarked) [Example 213] | 28 to 345
C[C@@H]1CN(C(=O)OC(C)(C)C)CCN1C(=O)N1CCC[C@H](N(c2cc(F)ccc2F)S(=O)(=O)c2ccc(Cl)cc2)C1 [Example 214] | 28 to 345

Reference: patent US7122675B2, “Gamma secretase inhibitors” (Schering Corporation, priority 2001, dated 2006)
